According to ChEMBL document CHEMBL4014279, “Synthesis of novel pyrazolo[3,4-b]quinolinyl acetamide analogs, their evaluation for antimicrobial and anticancer activities, validation by molecular modeling and CoMFA analysis” (Eur J Med Chem, 2017):
In brackets after ≈: the same amount, converted by molar mass. Activity calls are given as the source filed them. The calls are words filed in the database; no cut-off is given here.

Assays:
[1] = system: Staphylococcus aureus; experiment: Antibacterial activity against Staphylococcus aureus MTCC 96 after 24 hrs by well diffusion method; format: functional; settings: MTCC 96, 24 h
[2] = system: COLO 205; experiment: Cytotoxicity against human COLO205 cells at >100 uM after 24 hrs by MTT assay; format: functional, cell-based
[3] = system: HeLa; experiment: Cytotoxicity against human HeLa cells at >100 uM after 24 hrs by MTT assay; format: functional, cell-based
[4] = system: Raoultella planticola; experiment: Antibacterial activity against Klebsiella planticola MTCC 530 after 24 hrs by well diffusion method; format: functional; settings: MTCC 530, 24 h
[5] = system: Bacillus subtilis; experiment: Antibacterial activity against Bacillus subtilis MTCC 121 after 24 hrs by well diffusion method; format: functional; settings: MTCC 121, 24 h
[6] = system: Staphylococcus aureus; experiment: Antibacterial activity against Staphylococcus aureus MLS16 MTCC 2940 after 24 hrs by well diffusion method; format: functional; settings: MLS16 MTCC 2940, 24 h
[7] = system: Pseudomonas aeruginosa; experiment: Antibacterial activity against Pseudomonas aeruginosa MTCC 2453 after 24 hrs by well diffusion method; format: functional; settings: MTCC 2453, 24 h
[8] = system: Escherichia coli; experiment: Antibacterial activity against Escherichia coli MTCC 739 after 24 hrs by well diffusion method; format: functional; settings: MTCC 739, 24 h
[9] = system: A549; experiment: Cytotoxicity against human A549 cells at >100 uM after 24 hrs by MTT assay; format: functional, cell-based
[10] = system: Micrococcus luteus; experiment: Antibacterial activity against Micrococcus luteus MTCC 2470 after 24 hrs by well diffusion method; format: functional; settings: MTCC 2470, 24 h
[11] = system: HepG2; experiment: Cytotoxicity against human HepG2 cells at >100 uM after 24 hrs by MTT assay; format: functional, cell-based
[12] = system: HepG2; experiment: Cytotoxicity against human HepG2 cells after 24 hrs by MTT assay; format: functional, cell-based; settings: HepG2, 24 h
[13] = system: HeLa; experiment: Cytotoxicity against human HeLa cells after 24 hrs by MTT assay; format: functional, cell-based
[14] = system: COLO 205; experiment: Cytotoxicity against human COLO205 cells after 24 hrs by MTT assay; format: functional, cell-based; settings: COLO 205, 24 h
[15] = system: A549; experiment: Cytotoxicity against human A549 cells after 24 hrs by MTT assay; format: functional, cell-based; settings: A549, 24 h

MIC [1] | MIC [5] | MIC [6] | MIC [7] | MIC [8] | MIC [10] | SMILES | Activity [2] | Activity [3] | MIC [4] | Activity [9] | Activity [11] | IC50 [12] | IC50 [13] | IC50 [14] | IC50 [15]
7.8 to 125 µg/mL (≈ 15.9 to 254 µM) | 7.8 to 125 µg/mL (≈ 15.9 to 254 µM) | 7.8 to 125 µg/mL (≈ 15.9 to 254 µM) | 7.8 to 125 µg/mL (≈ 15.9 to 254 µM) | 7.8 to 125 µg/mL (≈ 15.9 to 254 µM) | 7.8 to 125 µg/mL (≈ 15.9 to 254 µM) | O=C(Cn1nc(C(F)(F)F)c2c(-c3ccccc3)c3ccccc3nc21)Nc1ccc([N+](=O)[O-])cc1 |  |  | 7.8 to 125 µg/mL (≈ 15.9 to 254 µM) |  |  | 12.2 µM | 15.1 µM | 14.3 µM | 10.8 µM
7.8 to 125 µg/mL (≈ 20.1 to 322 µM) | 7.8 to 125 µg/mL (≈ 20.1 to 322 µM) | 7.8 to 125 µg/mL (≈ 20.1 to 322 µM) | 7.8 to 125 µg/mL (≈ 20.1 to 322 µM) | 7.8 to 125 µg/mL (≈ 20.1 to 322 µM) | 7.8 to 125 µg/mL (≈ 20.1 to 322 µM) | Cc1c2ccccc2nc2c1c(C(F)(F)F)nn2CC(=O)NCc1ccco1 |  |  | 7.8 to 125 µg/mL (≈ 20.1 to 322 µM) |  |  | 48.2 µM | 32.8 µM | 29.8 µM | 33.9 µM
7.8 to 125 µg/mL (≈ 18.8 to 302 µM) | 7.8 to 125 µg/mL (≈ 18.8 to 302 µM) | 7.8 to 125 µg/mL (≈ 18.8 to 302 µM) | 7.8 to 125 µg/mL (≈ 18.8 to 302 µM) | 7.8 to 125 µg/mL (≈ 18.8 to 302 µM) | 7.8 to 125 µg/mL (≈ 18.8 to 302 µM) | COc1ccc(NC(=O)Cn2nc(C(F)(F)F)c3c(C)c4ccccc4nc32)cc1 | inactive | inactive | 7.8 to 125 µg/mL (≈ 18.8 to 302 µM) | inactive | inactive |  |  |  | 
7.8 to 125 µg/mL (≈ 18.2 to 291 µM) | 7.8 to 125 µg/mL (≈ 18.2 to 291 µM) | 7.8 to 125 µg/mL (≈ 18.2 to 291 µM) | 7.8 to 125 µg/mL (≈ 18.2 to 291 µM) | 7.8 to 125 µg/mL (≈ 18.2 to 291 µM) | 7.8 to 125 µg/mL (≈ 18.2 to 291 µM) | Cc1c2ccccc2nc2c1c(C(F)(F)F)nn2CC(=O)Nc1ccc([N+](=O)[O-])cc1 |  |  | 7.8 to 125 µg/mL (≈ 18.2 to 291 µM) | inactive | inactive |  | 38.9 µM | 36.2 µM | 
7.8 to 125 µg/mL (≈ 21.6 to 347 µM) | 7.8 to 125 µg/mL (≈ 21.6 to 347 µM) | 7.8 to 125 µg/mL (≈ 21.6 to 347 µM) | 7.8 to 125 µg/mL (≈ 21.6 to 347 µM) | 7.8 to 125 µg/mL (≈ 21.6 to 347 µM) | 7.8 to 125 µg/mL (≈ 21.6 to 347 µM) | COc1ccc(NC(=O)Cn2nc(C)c3c(C)c4ccccc4nc32)cc1 |  |  | 7.8 to 125 µg/mL (≈ 21.6 to 347 µM) |  |  | 22.2 µM | 20.4 µM | 18.9 µM | 25.6 µM

The next lines start with the compound.

SMILES | MIC [1] | MIC [5] | MIC [6] | MIC [7] | MIC [8] | MIC [10] | Activity [2] | Activity [3] | MIC [4] | Activity [9] | Activity [11] | IC50 [12] | IC50 [13] | IC50 [14] | IC50 [15]
O=C(Cn1nc(C(F)(F)F)c2c(-c3ccccc3)c3ccccc3nc21)N1CCN(CCO)CC1 | 7.8 to 125 µg/mL (≈ 16.1 to 259 µM) | 7.8 to 125 µg/mL (≈ 16.1 to 259 µM) | 7.8 to 125 µg/mL (≈ 16.1 to 259 µM) | 7.8 to 125 µg/mL (≈ 16.1 to 259 µM) | 7.8 to 125 µg/mL (≈ 16.1 to 259 µM) | 7.8 to 125 µg/mL (≈ 16.1 to 259 µM) | inactive | inactive | 7.8 to 125 µg/mL (≈ 16.1 to 259 µM) | inactive | inactive |  |  |  | 
O=C(Cn1nc(C(F)(F)F)c2c(-c3ccccc3)c3ccccc3nc21)N1CCCC1 | 7.8 to 125 µg/mL (≈ 18.4 to 295 µM) | 7.8 to 125 µg/mL (≈ 18.4 to 295 µM) | 7.8 to 125 µg/mL (≈ 18.4 to 295 µM) | 7.8 to 125 µg/mL (≈ 18.4 to 295 µM) | 7.8 to 125 µg/mL (≈ 18.4 to 295 µM) | 7.8 to 125 µg/mL (≈ 18.4 to 295 µM) |  |  | 7.8 to 125 µg/mL (≈ 18.4 to 295 µM) |  |  | 33.3 µM | 29.6 µM | 25.8 µM | 22.5 µM
Cc1c2ccccc2nc2c1c(C(F)(F)F)nn2CC(=O)N1CCCCC1 | 7.8 to 125 µg/mL (≈ 20.7 to 332 µM) | 7.8 to 125 µg/mL (≈ 20.7 to 332 µM) | 7.8 to 125 µg/mL (≈ 20.7 to 332 µM) | 7.8 to 125 µg/mL (≈ 20.7 to 332 µM) | 7.8 to 125 µg/mL (≈ 20.7 to 332 µM) | 7.8 to 125 µg/mL (≈ 20.7 to 332 µM) |  |  | 7.8 to 125 µg/mL (≈ 20.7 to 332 µM) |  |  | 36.6 µM | 33.9 µM | 25.4 µM | 32.5 µM
Cc1c2ccccc2nc2c1c(C(F)(F)F)nn2CC(=O)NC1CC1 | 7.8 to 125 µg/mL (≈ 22.4 to 359 µM) | 7.8 to 125 µg/mL (≈ 22.4 to 359 µM) | 7.8 to 125 µg/mL (≈ 22.4 to 359 µM) | 7.8 to 125 µg/mL (≈ 22.4 to 359 µM) | 7.8 to 125 µg/mL (≈ 22.4 to 359 µM) | 7.8 to 125 µg/mL (≈ 22.4 to 359 µM) |  |  | 7.8 to 125 µg/mL (≈ 22.4 to 359 µM) |  |  | 18.6 µM | 21 µM | 22.7 µM | 19.2 µM
O=C(Cn1nc(C(F)(F)F)c2c(-c3ccccc3)c3ccccc3nc21)NC1CCCCC1 | 7.8 to 125 µg/mL (≈ 17.2 to 276 µM) | 7.8 to 125 µg/mL (≈ 17.2 to 276 µM) | 7.8 to 125 µg/mL (≈ 17.2 to 276 µM) | 7.8 to 125 µg/mL (≈ 17.2 to 276 µM) | 7.8 to 125 µg/mL (≈ 17.2 to 276 µM) | 7.8 to 125 µg/mL (≈ 17.2 to 276 µM) |  |  | 7.8 to 125 µg/mL (≈ 17.2 to 276 µM) |  |  | 30.2 µM | 29.7 µM | 32.1 µM | 25.9 µM
Cc1c2ccccc2nc2c1c(C(F)(F)F)nn2CC(=O)N1CCN(CCO)CC1 | 7.8 to 125 µg/mL (≈ 18.5 to 297 µM) | 7.8 to 125 µg/mL (≈ 18.5 to 297 µM) | 7.8 to 125 µg/mL (≈ 18.5 to 297 µM) | 7.8 to 125 µg/mL (≈ 18.5 to 297 µM) | 7.8 to 125 µg/mL (≈ 18.5 to 297 µM) | 7.8 to 125 µg/mL (≈ 18.5 to 297 µM) |  |  | 7.8 to 125 µg/mL (≈ 18.5 to 297 µM) |  |  | 30.2 µM | 28.2 µM | 19.8 µM | 31.1 µM
CNC(=O)Cn1nc(C(F)(F)F)c2c(-c3ccccc3)c3ccccc3nc21 | 7.8 to 125 µg/mL (≈ 20.3 to 325 µM) | 7.8 to 125 µg/mL (≈ 20.3 to 325 µM) | 7.8 to 125 µg/mL (≈ 20.3 to 325 µM) | 7.8 to 125 µg/mL (≈ 20.3 to 325 µM) | 7.8 to 125 µg/mL (≈ 20.3 to 325 µM) | 7.8 to 125 µg/mL (≈ 20.3 to 325 µM) |  |  | 7.8 to 125 µg/mL (≈ 20.3 to 325 µM) |  |  | 22.5 µM | 23.5 µM | 19.8 µM | 21.4 µM
CNC(=O)Cn1nc(C)c2c(C)c3ccccc3nc21 | > 125 µg/mL | 62.5 µg/mL (≈ 233 µM) | > 125 µg/mL | > 125 µg/mL | > 125 µg/mL | 15.6 µg/mL (≈ 58.1 µM) |  |  | > 125 µg/mL |  |  | 17.9 µM | 18.1 µM | 16.3 µM | 20.2 µM
